From patent US20140194528A1, “USAGE OF SODIUM HOUTTUYFONATE ON INHIBITING IDIOPATHIC PULMONARY FIBROSIS AND BLEOMYCIN INDUCED PULMONARY FIBROSIS” (Hong Kong Baptist University, priority 2013, published 2014)

Tests used:
[1] = tested on: BLM induced pulmonary fibrosis mice model; assay: Bleomycin (BLM) induced pulmonary fibrosis mice model, treatment with SH or PA; assay type: in vivo, Kunming mice; settings: for lung inflammatory cell infiltration and collagen deposition (H&E staining): 7th, SH both high (90 mg/kg) and low (45 mg/kg) concentrations (FIG. 2); for lung inflammatory cell infiltration and collagen deposition (H&E staining) / lung/body weight ratio: 14th and 28th day; for lung/body weight ratio: SH oral once a day, p<0.05 / p<0.01 vs BLM group (FIG. 1); for hydroxyproline production in lung tissue: 28th day samples, p<0.05 / p<0.01 vs BLM group (FIG. 3C); for deposition of collagens (Sirius Red staining, polarized light): all sample collection time points (7th, 14th, 28th day), SH 90 and 45 mg/kg (FIG. 3A); for collagen I/III ratio: all time points (FIG. 3B)
Protocol: Kunming mice were obtained from Shanghai Experimental Animal Center, Chinese Academy of Sciences. The animals were housed in stainless steel metabolite cages and observed under a 12 hours light-12 hours dark cycle in a well-ventilated room at 23° C±2° C. They were fed with standard pellet food and tap water ad libitum. The study was approved by the Animal Care and Use Committee of Shanghai University of Traditional Chinese Medicine, and was performed in accordance with the National Institute of Health guidelines for the care and handling of animals.
One hundred and twenty mice (male, 8 weeks old, 18-22 g) were randomly divided into the following 5 groups: sham control operation group (Control); BLM treatment group (BLM); prednisone acetate treatment group (BLM+PA); high concentration SH treatment group (BLM+SH High); and low concentration SH treatment group (BLM+SH Low). In the control group, mice received 1 ml/kg 0.9% sterile saline intratracheally under pentobarbital sodium anesthesia. In the BLM group, mice received a single dose of BLM intratracheally (5 mg in 1 ml sterile saline/body weight (kg)). The control and BLM groups received saline (oral, 5 ml/body weight (kg)) once a day for 4 weeks after BLM injection. We selected the doses of SH based on our previous report and small-scale preliminary experiments. We employed two different administration concentrations. SH was administered orally once a day to both the high (90 mg/kg) and low (45 mg/kg) concentration SH groups. On the 7th, 14th or 28th day, the mice were anesthetized with pentobarbital sodium (50 mg/kg) intraperitoneally.
The lungs were immersed in buffered formalin (10%) for 48 h, then embedded in paraffin and sliced (5 μm) and stained with H&E, or Sirius red. Each sample slice was photographed (x200 magnification) under the microscope (Olympus BX51, 167 Japan). All photos were analyzed with the image-Pro Plus 6.3 analyzing software (Media Cybernetics, Bethesda, Md. USA) by computer. Type I and type III collagen accumulation in the interstitial space of the lung was assessed by polarized light microscopy. Type I or type III collagen volume fraction (CVF) was also determined with Image-Pro 6.3 analyzing software.
All values were expressed as mean±standard deviation (SD). Statistical analysis was performed by one-way analysis of variance for multiple comparisons, followed by Student-Newman-Keuls test to evaluate the difference between two groups. Values of p<0.05 were considered statistically significant for all analyses.

mice lung = assay: Small-scale preliminary experiments with two dosages of BLM in mice; assay type: in vivo
Protocol: Two different dosages of BLM (2.5 mg/kg, 5mg/kg) were given to 10 mice (5 mice for each group) for small-scale preliminary experiments. On the 7th and 14th day, the mice were anesthetized with pentobarbital sodium (50 mg/kg) intraperitoneally. […]. […] Therefore, 5 mg of BLM in 2.5 ml sterile saline/body weight (kg) was used to generate BLM induced pulmonary fibrosis mice model. In the BLM group, mice received a single dose of BLM. After the instillation of saline or BLM, the lung/body weight ratio were obtained on the 7th, 14th, and 28th day. […] Both PA and SH reduced the lung/body weight ratio on the 14th and 28th day in BLM mice (*p<0.05, **p<0.01). Meanwhile, there was no significant difference in body weight among all groups.

Compound | lung inflammatory cell infiltration and collagen deposition (H&E staining) ([1]; BLM mice) | lung/body weight ratio ([1]; BLM mice) | hydroxyproline production in lung tissue ([1]; BLM mice) | deposition of collagens (Sirius Red staining, polarized light) ([1]; BLM mice) | collagen I/III ratio ([1]; BLM+PH group) | cytokine (IL-1β, IL-6 and TNF-α) production in lung tissues ([1]; BLM mice) | body weight ([1]; BLM mice, higher dose of SH) | collagen I/III ratio ([1]; BLM+SH High (90 mg/kg)) | collagen I/III ratio ([1]; BLM+SH Low (45 mg/kg)) | pathological change of lung (mice lung; BLM 2.5 mg/kg, 7th and 14th day (data not shown)) | death (mice lung; BLM 5 mg/kg) | lung tissue histological examination (mice lung; BLM 5 mg/kg, 7th and 14th day)
CC(=O)OCC(=O)[C@@]1(O)CC[C@H]2[C@@H]3CCC4=CC(=O)C=C[C@]4(C)[C@H]3C(=O)C[C@@]21C [PA, prednisone acetate] | reduced | reduced | suppressed | reduced | low collagen I/III ratios |  |  |  |  |  |  | 
CCCCCCCCCC(=O)CC(O)S(=O)(=O)O (stereo not shown) [SH, Sodium Houttuyfonate] | reduced | reduced | suppressed | reduced |  | inhibit | without adversely affecting the body weight | low collagen I/III ratios | low collagen I/III ratios |  |  | 
Bleomycin [BLM] |  |  |  |  |  |  |  |  |  | not significant | no death | showed the fibrotic morphology
